Here are results for 52 molecules from patent US12011444B2, “N-substituted indole derivatives as PGE2 receptor modulators” (Idorsia Pharmaceuticals Ltd, priority 2015, dated 2024).

One assay addresses PTRGER4 (EP4) (Homo sapiens (Human), UniProt P35408). Put plainly: hEP4 b-arrestin assay (PathHunter HEK 293 PTGER4 b-arrestin cells). Type of assay: cell-based. The note with it: antagonistic activity on hEP4; mean where measured multiple times. The method, boiled down:
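Stably transfected HEK293 cells carrying EP4–ProLink and β-arrestin 2–EA (β-gal fragment complementation), pre-incubated with compound 15 min at 37 °C, then stimulated with PGE2 (20 nM final) for 120 min at 37 °C. Chemiluminescence read after 1 h detection reagent at room temperature; activity per concentration expressed as percent of DMSO control.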

The target of the next assay is PTGER2 (EP2) (Homo sapiens (Human), UniProt P43116). Put plainly: hEP2 b-arrestin assay (PathHunter HEK 293 PTGER2 b-arrestin cells). Type of assay: cell-based. To be noted: antagonistic activity on hEP2; mean where measured multiple times. The essentials: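 HEK293 cells expressing ProLink-tagged EP2 and EA-fused β-arrestin 2 (enzyme fragment complementation) were seeded 24 h, pre-incubated with compound 15 min at 37 °C, then stimulated with 5 μM PGE2 (final) for 120 min.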
Chain of PTGER2 (EP2) (P43116 whole entry, the tested form may be a part): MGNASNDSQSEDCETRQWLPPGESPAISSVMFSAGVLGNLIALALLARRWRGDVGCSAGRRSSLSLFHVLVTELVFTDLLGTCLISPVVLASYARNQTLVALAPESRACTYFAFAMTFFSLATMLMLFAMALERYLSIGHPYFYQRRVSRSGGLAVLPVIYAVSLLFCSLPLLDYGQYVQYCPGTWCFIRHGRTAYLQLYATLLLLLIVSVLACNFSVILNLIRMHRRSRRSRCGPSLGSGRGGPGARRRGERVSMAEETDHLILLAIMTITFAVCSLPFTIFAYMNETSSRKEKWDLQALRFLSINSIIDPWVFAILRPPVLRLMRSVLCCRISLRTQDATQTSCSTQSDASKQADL

What is called IC50 is the concentration that inhibits the measured activity by half. High values mean weaker potency, low ones greater potency.

Chain of PTRGER4 (EP4) (P35408 whole entry, looked up, the tested form may be a part): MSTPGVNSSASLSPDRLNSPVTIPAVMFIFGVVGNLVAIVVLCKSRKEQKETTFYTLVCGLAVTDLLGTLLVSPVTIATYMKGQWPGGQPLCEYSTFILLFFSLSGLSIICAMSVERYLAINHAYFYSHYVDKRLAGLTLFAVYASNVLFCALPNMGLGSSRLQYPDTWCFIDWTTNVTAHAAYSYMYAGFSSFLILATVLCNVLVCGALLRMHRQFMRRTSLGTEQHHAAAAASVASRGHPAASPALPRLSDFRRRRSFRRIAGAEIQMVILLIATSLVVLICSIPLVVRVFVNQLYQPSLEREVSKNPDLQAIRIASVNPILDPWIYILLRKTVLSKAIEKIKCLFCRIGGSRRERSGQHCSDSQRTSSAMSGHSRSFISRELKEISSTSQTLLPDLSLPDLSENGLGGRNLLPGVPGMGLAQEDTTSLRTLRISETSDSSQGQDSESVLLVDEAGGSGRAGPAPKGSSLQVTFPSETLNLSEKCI

Turning to `CCOc1cc(-c2cc(NCCn3c(C)cc4c(Cl)ccc(F)c43)ncn2)sc1C(=O)O` [compound 240], the values for the IC50 against PTRGER4 (EP4) and against PTGER2 (EP2) were 10 nM and 2 nM, respectively.
The corresponding values for `CCc1cc(-c2cc(NCCn3c(C)cc4cc(C)cc(F)c43)ncn2)sc1C(=O)O` [compound 241] are 128 nM and 32 nM.
In the same order, the values of `CCc1cc(-c2cc(NCCn3c(C)cc4cc(Cl)cc(F)c43)ncn2)sc1C(=O)O` [compound 242] are 216 nM and 111 nM.
With `CCNc1cc(-c2cc(NCCn3c(C)cc4c(F)ccc(F)c43)ncn2)ccc1C(=O)O` [compound 243], the IC50 against PTRGER4 (EP4) is 281 nM; against PTGER2 (EP2), 2 nM.
`CCNc1cc(-c2cc(NCCn3c(C)cc4c(C)cc(F)cc43)ncn2)ccc1C(=O)O` [compound 244]: the IC50 at PTRGER4 (EP4) turned out to be 86 nM; against PTGER2 (EP2), 2 nM.
Take `CCNc1cc(-c2cc(NCCn3c(C)cc4c(C)ccc(F)c43)ncn2)ccc1C(=O)O` [compound 245]: the IC50 at PTRGER4 (EP4) was 71 nM; against PTGER2 (EP2), 9 nM.
The corresponding values for `CCNc1cc(-c2cc(NCCn3c(C)cc4c(F)ccc(C)c43)ncn2)ccc1C(=O)O` [compound 246] are 507 nM and 2 nM.
The corresponding values for `CCNc1cc(-c2cc(NCCn3c(C)cc4cccc(OC)c43)ncn2)ccc1C(=O)O` [compound 247] are 681 nM and 32 nM.
The corresponding values for `CCOc1cc(-c2cc(NCCn3c(C#N)cc4c(C)cc(F)cc43)ncn2)sc1C(=O)O` [compound 249] are 9 nM and 3 nM.
Turning to `CNc1cc(-c2cc(NCCn3c(C)cc4c(OC)ccc(Cl)c43)ncn2)ccc1C(=O)O` [compound 250], the figures for the half-inhibitory concentration (IC50) against PTRGER4 (EP4) and on PTGER2 (EP2) were 103 nM and 3 nM, respectively.
With `CNc1cc(-c2cc(NCCn3c(C)cc4c(OC)ccc(F)c43)ncn2)ccc1C(=O)O` [compound 251], the 50% inhibitory concentration (IC50) came out at 37 nM on PTRGER4 (EP4) and 6 nM at PTGER2 (EP2).
The corresponding values for `CNc1cc(-c2cc(NCCn3c(C)cc4c(F)ccc(OC)c43)ncn2)ccc1C(=O)O` [compound 252] are 660 nM and 57 nM.
The corresponding values for `COc1cc(-c2cc(NCCn3c(C)cc4c(OC)cccc43)ncn2)cc(C)c1C(=O)O` [compound 254] are 999 nM and 64 nM.
The corresponding values for `CCOc1cc(-c2cc(NCCn3c(C)cc4ccc(OC)cc43)ncn2)ccc1C(=O)O` [compound 255] are 896 nM and 12 nM.
With `CCOc1cc(-c2cc(NCCn3c(C)cc4c(OC)ccc(Cl)c43)ncn2)sc1C(=O)O` [compound 256], the values for the half-inhibitory concentration (IC50) against PTRGER4 (EP4) and on PTGER2 (EP2) were 29 nM and 3 nM, respectively.
The corresponding values for `CCOc1cc(-c2cc(NCCn3c(C)cc4c(OC)cc(F)cc43)ncn2)sc1C(=O)O` [compound 257] are 6 nM and 2 nM.
In the same order, the values of `CCOc1cc(-c2cc(NCCn3c(C)cc4cc(OC)cc(F)c43)ncn2)sc1C(=O)O` [compound 259] are 127 nM and 37 nM.
The corresponding values for `COc1cc(-c2cc(NCCn3c(C)cc4c(OC)ccc(F)c43)ncn2)ccc1C(=O)O` [compound 260] are 536 nM and 28 nM.
With `CCOc1cc(-c2cc(NCCn3c(C)cc4c(OC)ccc(C)c43)ncn2)sc1C(=O)O` [compound 261], the 50% inhibitory concentration (IC50) against PTRGER4 (EP4) came to 71 nM; against PTGER2 (EP2) it was 12 nM.
Consider `Cc1ccc2c(c1)cc(C)n2CCNc1cc(-c2ccc(C(=O)O)c(CC(C)C)c2)ncn1` [compound 262], for which the half-inhibitory concentration (IC50) against PTRGER4 (EP4) was found to be 925 nM; against PTGER2 (EP2), 35 nM.
In the same order, the values of `CCCc1cc(-c2cc(NCCn3c(C)cc4cc(Cl)cc(F)c43)ncn2)ccc1C(=O)O` [compound 263] are 587 nM and 90 nM.
The corresponding values for `CCc1cc(-c2cc(NCCn3c(C)cc4c(C)cc(F)cc43)ncn2)cc(Cl)c1C(=O)O` [compound 264] are 287 nM and 71 nM.
In the same order, the values of `CCc1cc(-c2cc(NCCn3c(C)cc4c(C)ccc(F)c43)ncn2)cc(F)c1C(=O)O` [compound 265] are 491 nM and 33 nM.
As to `CCCc1cc(-c2cc(NCCn3c(C)cc4cc(C)cc(Cl)c43)ncn2)ccc1C(=O)O` [compound 266], the half-inhibitory concentration (IC50) on PTRGER4 (EP4) was found to be 953 nM; at PTGER2 (EP2) it was 53 nM.
`CCCc1cc(-c2cc(NCCn3c(C)cc4cc(C)cc(F)c43)ncn2)ccc1C(=O)O` [compound 267]: the results for the 50% inhibitory concentration (IC50) against PTRGER4 (EP4) and on PTGER2 (EP2) were 317 nM and 26 nM, respectively.
In the same order, the values of `Cc1cc2c(Cl)cccc2n1CCNc1cc(-c2ccc(C(=O)O)c(CC(C)C)c2)ncn1` [compound 268] are 635 nM and 11 nM.
The corresponding values for `Cc1cc(F)cc2c1cc(C)n2CCNc1cc(-c2cc(C(F)(F)F)c(C(=O)O)s2)ncn1` [compound 269] are 117 nM and 61 nM.
Turning to `CSc1cc(-c2cc(NCCn3c(C)cc4c(C)c(F)cc(Cl)c43)ncn2)ccc1C(=O)O` [compound 270], the 50% inhibitory concentration (IC50) at PTRGER4 (EP4) is 513 nM; against PTGER2 (EP2), 46 nM.
The corresponding values for `CCCc1cc(-c2cc(NCCn3c(C)cc4c(OC)cccc43)ncn2)ccc1C(=O)O` [compound 271] are 153 nM and 5 nM.
The corresponding values for `CCOc1cc(-c2cc(NCCn3c(C)cc4cc(F)c(Cl)c(Cl)c43)ncn2)sc1C(=O)O` [compound 272] are 716 nM and 8 nM.
As for `CCOc1cc(-c2cc(NCCn3c(C)cc4cc(F)c(F)c(F)c43)ncn2)sc1C(=O)O` [compound 273], the values for the IC50 on PTRGER4 (EP4) and on PTGER2 (EP2) were 67 nM and 1 nM, respectively.
The corresponding values for `CCOc1cc(-c2cc(NCCn3c(C)cc4c(F)cc(F)c(F)c43)ncn2)sc1C(=O)O` [compound 274] are 43 nM and 1 nM.
In the same order, the values of `CCOc1cc(-c2cc(NCCn3c(C)cc4c(F)c(F)cc(F)c43)ncn2)sc1C(=O)O` [compound 275] are 25 nM and 1 nM.
The corresponding values for `COc1ccc(Cl)c2c1cc(C)n2CCNc1cc(-c2cc(C)c(C(=O)O)c(F)c2)ncn1` [compound 276] are 885 nM and 65 nM.
As to `COc1ccc(F)c2c1cc(C)n2CCNc1cc(-c2cc(C)c(C(=O)O)c(F)c2)ncn1` [compound 277], the IC50 was found to be 416 nM at PTRGER4 (EP4) and 17 nM against PTGER2 (EP2).
In the same order, the values of `CCOc1cc(-c2cc(NCCn3c(C)cc4c(F)c(F)ccc43)ncn2)ccc1C(=O)O` [compound 278] are 999 nM and 9 nM.
In the case of `CCOc1cc(-c2cc(NCCn3c(C)cc4c(Cl)cc(Cl)cc43)ncn2)ccc1C(=O)O` [compound 279], the 50% inhibitory concentration (IC50) is 313 nM on PTRGER4 (EP4) and 22 nM against PTGER2 (EP2).
The corresponding values for `CCOc1cc(-c2cc(NCCn3c(C)cc4c(Cl)cc(F)cc43)ncn2)ccc1C(=O)O` [compound 280] are 652 nM and 16 nM.
Turning to `CCOc1cc(-c2cc(NCCn3c(C)cc4c(Cl)ccc(F)c43)ncn2)ccc1C(=O)O` [compound 281], the values for the IC50 at PTRGER4 (EP4) and against PTGER2 (EP2) were 435 nM and 27 nM, respectively.
The corresponding values for `CCOc1cc(-c2cc(NCCn3c(C)cc4c(C)cc(F)cc43)ncn2)ccc1C(=O)O` [compound 282] are 294 nM and 11 nM.
In the same order, the values of `CCc1cc(-c2cc(NCCn3c(C)cc4c(OC)cc(F)cc43)ncn2)ccc1C(=O)O` [compound 283] are 132 nM and 17 nM.
In the same order, the values of `CCOc1cc(-c2cc(NCCn3c(C)cc4cc(C)cc(Cl)c43)ncn2)ccc1C(=O)O` [compound 284] are 824 nM and 34 nM.
With `CCOc1cc(-c2cc(NCCn3c(C)cc4cc(C)cc(F)c43)ncn2)ccc1C(=O)O` [compound 285], the figures for the IC50 at PTRGER4 (EP4) and against PTGER2 (EP2) were 691 nM and 47 nM, respectively.
The corresponding values for `COc1cc(-c2cc(NCCn3c(C)cc4c(C)ccc(F)c43)ncn2)cc(C)c1C(=O)O` [compound 286] are 268 nM and 31 nM.
In the same order, the values of `COc1ccc(Cl)c2c1cc(C)n2CCNc1cc(-c2cc(C)c(C(=O)O)c(C)c2)ncn1` [compound 287] are 963 nM and 183 nM.
Take `CCc1cc(-c2cc(NCCn3c(C)cc4c(OC)ccc(Cl)c43)ncn2)ccc1C(=O)O` [compound 288]: the 50% inhibitory concentration (IC50) against PTRGER4 (EP4) turned out to be 714 nM; at PTGER2 (EP2), 19 nM.
The corresponding values for `COc1ccc(F)c2c1cc(C)n2CCNc1cc(-c2cc(C)c(C(=O)O)c(C)c2)ncn1` [compound 289] are 299 nM and 53 nM.
The corresponding values for `CCc1cc(-c2cc(NCCn3c(C)cc4c(OC)ccc(F)c43)ncn2)ccc1C(=O)O` [compound 290] are 102 nM and 28 nM.
In the same order, the values of `COc1cc(F)cc2c1cc(C)n2CCNc1cc(-c2cc(Cl)c(C(=O)O)c(Cl)c2)ncn1` [compound 291] are 104 nM and 41 nM.
For `COc1ccc(Cl)c2c1cc(C)n2CCNc1cc(-c2cc(Cl)c(C(=O)O)c(Cl)c2)ncn1` [compound 292], the 50% inhibitory concentration (IC50) against PTRGER4 (EP4) came to 397 nM; on PTGER2 (EP2), 52 nM.
With `COc1ccc(F)c2c1cc(C)n2CCNc1cc(-c2cc(Cl)c(C(=O)O)c(Cl)c2)ncn1` [compound 293], the IC50 stood at 113 nM against PTRGER4 (EP4) and 19 nM at PTGER2 (EP2).
The corresponding values for `CCOc1cc(-c2cc(NCCn3c(C)cc4c(C)cc(F)c(F)c43)ncn2)sc1C(=O)O` [compound 294] are 10 nM and 8 nM.
